Experimental data as given in US8198434B2, “Process for preparing cefsulodin sodium” (IDEXX Laboratories, Inc., priority 2008, dated 2012).

How the values were obtained:
Format in all cases: physicochemical
[1] = Stability study of cefsulodin sodium stored at 55° C., purity by HPLC (Example 3); conditions: for Purity Day 0: Day 0, HPLC peak area; for Purity Day 7: Day 7, HPLC peak area; for Purity Day 14: Day 14, HPLC peak area; for Purity Day 21: Day 21, HPLC peak area; for Purity Day 28: Day 28, HPLC peak area; for Purity Day 35: Day 35, HPLC peak area; for Purity Day 42: Day 42, HPLC peak area; for Purity Day 49: Day 49, HPLC peak area; for Purity Day 56: Day 56, HPLC peak area; for Purity Day 63: Day 63, HPLC peak area; for Purity Day 70: Day 70, HPLC peak area
Description: (§1) Three lots of cefsulodin sodium, prepared according to the process described in Example 2, were stored at 55° C. and 40° C. and the purity of the sample determined as a function of time using HPLC. […] The stability of a lyophilized sample of cefsulodin sodium containing about 5-6% water at 55° C. was also determined. The lyophilized sample was prepared by suspending cefsulodin in water, adding sodium hydroxide until the cefsulodin dissolved, and then removing the water by lyophilization. The area of the HPLC peak corresponding to cefsulodin was used to determine purity. The following assay was used to determine purity:
(§2) 1. 25 mM Sodium Acetate pH 4.5 • a. Measure out 2 L of HPLC grade water. • b. Add 4.1 g of sodium acetate. • c. Mix until dissolved. • d. Adjust the pH to 4.5 with HPLC grade acetic acid. • e. Filter the solution through a nylon filter.
(§3) 2. 3% acetonitrile-97% 25 mM sodium acetate pH 4.5 (Mobile Phase A) • a. Measure out 1940 mL of 25 mM sodium acetate into a 2 L flask. • b. Add 60 mL of HPLC grade acetonitrile. • c. Mix well.
(§4) 3. HPLC Grade acetonitrile (Mobile Phase B) • a. Transfer acetonitrile into a 1 L flask. Sample Preparation:
(§5) 1. Weigh out about 10 mg of cefsulodin into a 15 mL conical tube.
(§6) 2. Add […] of mobile phase A and mix to dissolve (1 mg/mL cefsulodin Stock solution).
(§7) 3. Transfer 1 mL of cefsulodin stock solution into another 15 mL conical tube.
(§8) 4. Add 7 mL of mobile phase A to make a 0.125 mg/mL solution of cefsulodin.
(§9) 5. Filter this solution through a nylon syringe filter into an HPLC vial.
(§10) 6. Analyze the sample by HPLC using the conditions described below.
(§11) Solvents: Pump A-Mobile Phase A • Pump B-Mobile Phase B
(§12) Detection wavelength: 254 nm
(§13) Initial Conditions: 100% Pump A-0% Pump B
(§14) The above gradient can be summarized as follows: maintain at 0% B for 0.3 min; at 0.3 min run a gradient to 70% B for 2.5 min; maintain at 70% B for 1 min; at 3.5 min go back to 0% B for 0.5 min; run at 0% B until the 8.00 min mark.

[2] = Stability study of cefsulodin sodium stored at 40° C., purity by HPLC (Example 3); conditions: for Purity Day 0: Day 0, HPLC peak area; for Purity Day 7: Day 7, HPLC peak area; for Purity Day 14: Day 14, HPLC peak area; for Purity Day 21: Day 21, HPLC peak area; for Purity Day 28: Day 28, HPLC peak area; for Purity Day 35: Day 35, HPLC peak area; for Purity Day 42: Day 42, HPLC peak area; for Purity Day 49: Day 49, HPLC peak area; for Purity Day 56: Day 56, HPLC peak area; for Purity Day 63: Day 63, HPLC peak area; for Purity Day 70: Day 70, HPLC peak area
Description: as §1, §2, §3, §4, §5, §6, §7, §8, §9, §10, §11, §12, §13, §14

[3] = Stability of needle-shaped and spherical-shaped cefsulodin sodium crystals at 55° C. (Example 5); conditions: for Purity Day 1 / Purity Day 7 / Purity Day 14 / Purity Day 21: crystal form stored at 55° C.
Description: Needle-shaped cefsulodin sodium crystals were obtain according to a process similar to the process described in Example 2.
Spherical-shaped cefsulodin sodium crystals were obtain according to the process described in Example 3.
The stability of each crystal form was measured at 55° C.

[4] = Storage at about room temperature, purity by HPLC
Solubility in water = test: Solubility in water

| Purity Day 0 [1] [%] | Purity Day 7 [1] [%] | Purity Day 14 [1] [%] | Purity Day 21 [1] [%] | Purity Day 28 [1] [%] | Purity Day 42 [1] [%] | Purity Day 49 [1] [%] | Purity Day 56 [1] [%] | Purity Day 63 [1] [%] | Purity Day 70 [1] [%] | Purity Day 0 [2] [%] | Purity Day 7 [2] [%] | Purity Day 14 [2] [%] | Purity Day 21 [2] [%] | Purity Day 28 [2] [%] | Purity Day 42 [2] [%] | Purity Day 49 [2] [%] | Purity Day 56 [2] [%] | Purity Day 63 [2] [%] | Purity Day 70 [2] [%] | Compound | also measured |
| --- | --- | --- | --- | --- | --- | --- | --- | --- | --- | --- | --- | --- | --- | --- | --- | --- | --- | --- | --- | --- | --- |
| 99.2 | 97.2 | 96.0 | 94.9 | 94.3 | 91.8 | 90.9 | 90.5 | 89.8 | 89.1 | 99.2 | 98.2 | 98.2 | 97.5 | 97.2 | 96.3 | 96.4 | 96.0 | 96.0 | 95.3 | NC(=O)c1cc[n+](CC2=C(C(=O)[O-])N3C(=O)[C@@H](NC(=O)[C@@H](c4ccccc4)S(=O)(=O)[O-])[C@H]3SC2)cc1.[Na+] [Lot 1, cefsulodin sodium] | Purity Day 35 [1]: 93.4%; Purity Day 35 [2]: 96.4% |
| 99.2 | 97.1 | 96.1 | 94.7 | 94.4 | 91.8 | 91.0 | 90.1 | 89.8 | 89.2 | 99.2 | 98.5 | 98.3 | 97.7 | 97.1 | 96.5 | 96.4 | 96.4 | 96.1 | 95.6 | NC(=O)c1cc[n+](CC2=C(C(=O)[O-])N3C(=O)[C@@H](NC(=O)[C@@H](c4ccccc4)S(=O)(=O)[O-])[C@H]3SC2)cc1.[Na+] [Lot 2, cefsulodin sodium] | Purity Day 35 [1]: 92.9%; Purity Day 35 [2]: 96.8% |
| 99.3 | 96.9 | 96.1 | 94.8 | 93.9 | 93.4 | 92.6 | 92.7 | 91.3 | 91.3 | 99.3 | 98.4 | 98.5 | 98.1 | 97.9 | 96.2 | 97.2 | 97.3 | 97.0 | 97.0 | NC(=O)c1cc[n+](CC2=C(C(=O)[O-])N3C(=O)[C@@H](NC(=O)[C@@H](c4ccccc4)S(=O)(=O)[O-])[C@H]3SC2)cc1.[Na+] [Lot 3, cefsulodin sodium] |  |
| 98.8 |  |  |  | 80.4 |  |  |  |  |  |  |  |  |  |  |  |  |  |  |  | NC(=O)c1cc[n+](CC2=C(C(=O)O)N3C(=O)[C@@H](NC(=O)[C@@H](c4ccccc4)S(=O)(=O)[O-])[C@H]3SC2)cc1 [Lyophilized, cefsulodin sodium] |  |
|  |  |  |  |  |  |  |  |  |  |  |  |  |  |  |  |  |  |  |  | NC(=O)c1cc[n+](CC2=C(C(=O)[O-])N3C(=O)[C@@H](NC(=O)[C@@H](c4ccccc4)S(=O)(=O)[O-])[C@H]3SC2)cc1.[Na+] [Needle-shaped, cefsulodin sodium] | stability of crystal forms (comparison) ([3]; 55° C.): more stable than the spherical-shaped crystals; Purity Day 1 [3]: 99.2; Purity Day 7 [3]: 98.1; Purity Day 14 [3]: 96.8; Purity Day 21 [3]: 95.7 |
|  |  |  |  |  |  |  |  |  |  |  |  |  |  |  |  |  |  |  |  | NC(=O)c1cc[n+](CC2=C(C(=O)[O-])N3C(=O)[C@@H](NC(=O)[C@@H](c4ccccc4)S(=O)(=O)[O-])[C@H]3SC2)cc1.[Na+] [Spherical-shaped, cefsulodin sodium] | Purity Day 1 [3]: 98.5; Purity Day 7 [3]: 86.3; Purity Day 14 [3]: 83.7; Purity Day 21 [3]: 83.1 |
|  |  |  |  |  |  |  |  |  |  |  |  |  |  |  |  |  |  |  |  | NC(=O)c1cc[n+](CC2=C(C(=O)O)N3C(=O)[C@@H](NC(=O)[C@@H](c4ccccc4)S(=O)(=O)[O-])[C@H]3SC2)cc1 [cefsulodin sodium] | purity after storage for 29 days ([4]; about room temperature, 29 days): 80.4%; purity after storage for 56 days ([4]; about room temperature, 56 days): 76.7%; purity determined by HPLC before storage ([4]; initial, before storage at about room temperature): about 95% |
|  |  |  |  |  |  |  |  |  |  |  |  |  |  |  |  |  |  |  |  | NC(=O)c1cc[n+](CC2=C(C(=O)O)N3C(=O)[C@@H](NC(=O)[C@@H](c4ccccc4)S(=O)(=O)[O-])[C@H]3SC2)cc1 [cefsulodin] | solubility in water (Solubility in water): insoluble in water |
|  |  |  |  |  |  |  |  |  |  |  |  |  |  |  |  |  |  |  |  | NC(=O)c1cc[n+](CC2=C(C(=O)[O-])N3C(=O)[C@@H](NC(=O)[C@@H](c4ccccc4)S(=O)(=O)[O-])[C@H]3SC2)cc1.[Na+] [monosodium cefsulodin, monosodium salt of cefsulodin] | solubility in water (Solubility in water): more soluble in water that cefsulodin |
